Experimental data reported in patent US20240238237A1, “CONJUGATED LINOLEIC ACID SUPPLEMENTATION FOR DISEASE TREATMENT” (VIRGINIA TECH INTELLECTUAL PROPERTIES, INC., priority 2021, published 2024).
“Also recorded” adds a separate entry of the source.

What was measured:
Format in all cases: in vivo, mouse
[1] = tested on: WT, PWS (Snord116m+/p−) and PWS-KO (Snord116m−/p−) mice; test: Indirect calorimetry and home-cage activity (TSE system); conditions: end of study, TSE metabolic chamber
Experimental: Indirect calorimetry and locomotor activity measurements were performed using a Labmaster Mouse calorimetry and Locomotor system (TSE Systems, Bad Homburg, Germany) in the Metabolism Core Virginia Tech. VO2 consumption and VCO2 production in individual mice were measured using metabolic chambers. Air going into the TSE system was at 20.9% oxygen, 0.05% CO2, and the airflow rate was 0.4 L/min (Airgas, Christiansburg, VA, USA). Data were collected every 15 min. Body composition was measured, as described above, prior to assessment of the animals using the TSE system. A photobeam-based ac-tivity monitoring system detected and recorded ambulatory movements. The results were used to calculate the respiratory exchange ratio (RER) and total energy expenditure/gram lean mass. Energy expenditure (KJ/h) was calculated using the formula VO2×(3.815+(1.232×RER))×4.1868 and normalized to the lean mass determined by NMR. All parameters were measured continuously and simultaneously for 48 h after approximately 20 h of adaptation for single-housed mice. The average values for the last 24-48 h were used for analysis. To calculate hourly activity, the average of two-hour bins of activity from the last 24 h period was plotted. […]

[2] = tested on: WT, PWS (Snord116m+/p−) and PWS-KO (Snord116m−/p−) mice; test: Elevated plus maze anxiety-like behavior, Example 1; conditions: pre- and post-intervention; genotype, treatment or interaction
Experimental: A plus-shaped elevated plus apparatus with two open and two closed arms was constructed using measurements obtained from a commercial apparatus. This elevated plus maze was used for anxiety-like behavior analysis. The maze was cleaned with 70% ethanol before and after the procedure for each mouse and allowed to fully dry between mice. Mice were placed in the center/cross-arms and allowed to freely explore the maze for 5 min while the duration and frequency of entries into open and closed arms was recorded. Animals that enter the open arms more frequently are considered to display less overall anxiety-like behavior than those that stay in the closed arms.

[3] = tested on: hypothalamic gene expression; test: Hypothalamic RNA-seq and RT-QPCR
Experimental: Fresh hypothalamus tissue was lysed in TRIzol® using a rotor stator homogenizer. TRIzol samples were frozen at −20° C. in microfuge tubes until purified (2 weeks to 5 months). […] Purified RNA was then DNAse-treated using TURBO DNA-free™ Kit (ThermoFisher #AM1907) according to manufacturer's instructions, diluted to 60 ng/μL in nuclease-free water, and stored at −80° C.
RNA sequencing and library preparation was performed by Virginia Tech's Genomics Sequencing Center facility at the Fralin Life Sciences Institute. […] The library was enriched by 14 cycles of PCR, validated using Agilent TapeStation, and quantitated by qPCR. Individually indexed cDNA libraries were pooled and sequenced on NextSeq 75 SR. The Illumina NextSeq Control Software v2.1.0.32 with Real Time Analysis RTA v2.4.11.0 was used to provide the management and execution of the NextSeq 500 and to generate binary base call (BCL) files. The BCL files were converted to FASTQ files, adapters trimmed, and demul-tiplexed using bcl2fastq Conversion Software v2.20. FASTQ files were aligned to mouse genome GRCm38.p6 using the Geneious RNA assembler 2 Jan. […] Raw read counts were quantified to gene and/or transcript annotations with loss of strand-specificity. Differential expression analysis across experimental conditions was performed using the DESeq2 plugin in Geneious Prime. Default settings for filtering low-expression mapped genetic features were used for the DESeq2 plugin. False discovery rate (FDR) was calculated using the Benjamini-Hochberg procedure with a threshold for significance of FDR <0.10. Additionally, raw read counts were used to quantify differential expression through edgeR and voom using the DEApp online webserver. Low-expression mapped genetic features were removed with log 2CPM <1 in 2 or more samples. The results from the three differential expression methodologies, DESeq2, edgeR, and voom, were compared using R and spreadsheet software such as Microsoft Excel. Differentially expressed genes were analyzed for gene-ontology enrichment with MouseMine.
Reactions of 10 μL were performed using 150 nM final primer concentration. […] A 90 ng measure of RNA was used per 10 μL reaction. Two to three technical replicates were performed. Control reactions for each sample (minus reverse-transcriptase and minus template controls) were used for quality control. […] Quality-control measures including melt-curve analysis, technical replicate analysis, etc., were analyzed by thermocycler software and by operator; any major errors were excluded from analysis when deemed appropriate by the quality-control software, and/or new samples and plates were run. Candidate reference genes for ddCT analysis were analyzed and mouse beta-actin was chosen as the reference gene control for all experiments.
The numbers of samples in statistical tests are described in respective figures. The 2ddCT method of relative quantification was used. Statistical significance tests were performed on respective ddCT values, from which Relative Quantification values were derived. A two-way ANOVA with Bonferroni correction was used for relative expression of RNA normalized to WT or control conditions.

[4] = tested on: testes of N2KO and WT mice; test: Testicular histology (H&E), Example 3
Source text: At the end of the study, numerous body tissues were taken during necropsy, including testes. […] There appeared to be no effect in WT mice.
At the end of the 12-week feeding study with supplemental CLA, mice were euthanized and necropsied. Testicular tissue was removed from the abdominal cavity and placed in 4% paraformaldehyde overnight. The next day, tissue was dehydrated in 70% ethanol and stored at 4 degrees C. until further processing, which included embedding, sectioning and H&E staining.

[5] = tested on: C57Bl/6 WT, PWS, PWS-KO mice and 129v/J mice with a deletion of Nhlh2; test: Rotarod balance and forward locomotion, Example 2; conditions: end of 12 week study, regardless of genotype
Experimental: At the end of the 12 week study, mice were acclimated to using a rotarod apparatus (FIG. 15A), for one day with grip tape on the rod, and two days without grip tape, at an acceleration of 2.65%, starting from 0) rpm to a maximum speed of 20 rpm. The average of four trials, spaced at least 5 minutes apart on day 4 of testing were the basis for the experimental result.

conjugated linoleic acid [CLA]
Home-cage activity [1]: not significant | Time in open arms, elevated plus [2]: no differences | Chmp1b mRNA, verification QPCR ([3]; QPCR, p=0.01): increase was maintained | Retreg2 mRNA, validation QPCR ([3]; QPCR, p=0.22): not significant | Genes up-regulated by CLA diet ([3]; RNA-seq): 135 genes | Retreg2 mRNA reduction ([3]; RNA-seq, CLA diet treatment on PWS mice): 0.89 fold | Differentially expressed genes between control diet and CLA diets ([3]; RNA-seq, WT and PWS hypothalamus): 431 genes | Chmp1b mRNA increase with CLA diet ([3]; RNA-seq, both genotypes): 1.27 fold | Mael expression in PWS mice ([3]; RNA-seq, not confirmed by RT-QPCR): rescued | Gene Ontology enrichment, WT response to CLA diet ([3]; WT only): starvation, nutrient levels, and cellular stress were significantly enriched | Gene Ontology enrichment, CLA vs control ([3]; all genotypes): significantly enriched processes related to ribosomal RNA processing, cellular metabolic processes, and aging, lethality, or survival processes | Testicular morphology, WT mice ([4]; 12 weeks CLA diet): no effect; also recorded: normal testicular morphology | Testicular morphology, N2KO mice ([4]; 12 weeks CLA diet vs control diet): improved testicular morphology | Sperm in N2KO mice fed the CLA diet ([4]; N2KO, histology): apparent presence of sperm in the epididymis | Testis size ([4]; effect of diet): not influenced | Rotarod balance and forward locomotion [5]: balance and forward locomotion improvement
